Assay results from US20240308960A1 (Sumitomo Pharma Co., Ltd., priority 2021, published 2024).

target: T1, Human orexin receptor type 2 (Homo sapiens, UniProt O43614); assay: Test Example 1: agonist activity for orexin receptor type 2 (aequorin luminescence, intracellular calcium mobilization); settings: compound 10 μm; CHO cells transiently expressing human orexin receptor type 2 and apoaequorin; relative percentage of luminescence for the luminescence (100%) of Orexin A (100 μM)
T1 sequence (O43614 1-444): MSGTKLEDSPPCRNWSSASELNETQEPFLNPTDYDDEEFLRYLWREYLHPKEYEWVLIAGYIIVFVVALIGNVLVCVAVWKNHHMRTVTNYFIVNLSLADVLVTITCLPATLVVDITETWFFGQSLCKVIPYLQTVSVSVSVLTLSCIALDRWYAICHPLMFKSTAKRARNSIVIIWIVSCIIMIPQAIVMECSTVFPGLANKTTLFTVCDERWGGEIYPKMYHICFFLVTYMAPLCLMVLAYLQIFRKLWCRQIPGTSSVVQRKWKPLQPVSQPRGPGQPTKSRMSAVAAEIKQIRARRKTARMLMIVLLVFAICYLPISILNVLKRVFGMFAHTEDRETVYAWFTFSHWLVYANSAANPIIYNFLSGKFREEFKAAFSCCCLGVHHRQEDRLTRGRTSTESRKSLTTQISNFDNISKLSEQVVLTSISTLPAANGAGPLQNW

| Compound | Agonist Activity (%) |
| --- | --- |
| Cc1ccc(C2CCN(C(=O)Nc3c(F)cccc3N3CCN(C(C)C)CC3)CC2C)cc1 (racemic) [Example 26, Rac-N-{2-fluoro-6-[4-(propan-2-yl)piperazin-1-yl]phenyl}-3-methyl-4-(4-methylphenyl)piperidine-1-carboxamide] | 63 |
| Cc1ccc(C2CCN(C(=O)Nc3ccccc3N3CCN(C(C)C)C(C)C3)CC2)cc1 (racemic) [Example 28, Rac-4-(4-methylphenyl)-N-{2-[3-methyl-4-(propan-2-yl)piperazin-1-yl]phenyl}piperidine-1-carboxamide] | 104 |
| Cc1ccc(C2CCN(C(=O)Nc3ccccc3N3CCN(C(C)C)CC3C)CC2)cc1 (racemic) [Example 30, Rac-4-(4-methylphenyl)-N-{2-[2-methyl-4-(propan-2-yl)piperazin-1-yl]phenyl}piperidine-1-carboxamide] | 36 |
| CC(C)N1CCN(c2cccc(Cl)c2NC(=O)N2CCC(C)(c3noc([C@@H]4C[C@@H]4C)n3)CC2)CC1 (racemic) [Example 104, Rac-N-{2-chloro-6-[4-(propan-2-yl)piperazin-1-yl]phenyl}-4-methyl-4-{5-[(1R,2S)-2-methylcyclopropyl]-1,2,4-oxadiazol-3-yl}piperidine-1-carboxamide] | 180 |
| CC(C)N1CCC(Oc2cccc(Cl)c2NC(=O)N2CCC(C)(c3noc(C4CC4)n3)CC2)C1 (racemic) [Example 110, Rac-N-(2-chloro-6-{[1-(propan-2-yl)pyrrolidin-3-yl]oxy}phenyl)-4-(5-cyclopropyl-1,2,4-oxadiazol-3-yl)-4-methylpiperidine-1-carboxamide] | 148 |
| CC(C)[C@H]1CO[C@H](c2cccc(Cl)c2NC(=O)N2CCC(C)(c3noc(C4CC4)n3)CC2)CN1 (racemic) [Example 167, Rac-N-{2-chloro-6-[(2R,5S)-5-(propan-2-yl)morpholin-2-yl]phenyl}-4-(5-cyclopropyl-1,2,4-oxadiazol-13-yl)-4-methylpiperidine-1-carboxamide] | 183 |
| CC(C)[C@@H]1CO[C@H](c2cccc(Cl)c2NC(=O)N2CCC(C)(c3noc(C4CC4)n3)CC2)CN1 (racemic) [Example 168, Rac-N-{2-chloro-6-[(2R,5R)-5-(propan-2-yl)morpholin-2-yl]phenyl}-4-(5-cyclopropyl-1,2,4-oxadiazol-3-yl)-4-methylpiperidine-1-carboxamide] | 184 |
| CCN1CCN(c2ccccc2NC(=O)N2CCC(c3ccc(OC)cc3)CC2)CC1 [Example 1, N-[2-(4-Ethylpiperazin-1-yl)phenyl]-4-(4-methoxyphenyl)piperidine-1-carboxamide] | 77 |
| CCN1CCN(c2ccccc2NC(=O)N2CCC(c3nc4ccccc4o3)CC2)CC1 [Example 2, 4-(1,3-benzoxazol-2-yl)-N-[2-(4-ethylpiperazin-1-yl)phenyl]piperidine-1-carboxamide] | 35 |
| CCN1CCN(c2ccccc2NC(=O)N2CCC(c3cc(OC)cc(OC)c3)CC2)CC1 [Example 3, 4-(3,5-dimethoxyphenyl)-N-[2-(4-ethylpiperazin-1-yl)phenyl]piperidine-1-carboxamide] | 27 |
| CCN1CCN(c2ccccc2NC(=O)N2CCC(C)(c3ccccc3)CC2)CC1.Cl [Example 4, N-[2-(4-ethylpiperazin-1-yl)phenyl]-4-methyl-4-phenylpiperidine-1-carboxamide hydrochloride] | 125 |
| CC(C)N1CCN(c2ccccc2NC(=O)N2CCC(C)(c3ccccc3)CC2)CC1 [Example 5, 4-methyl-4-phenyl-N-{2-[4-(propan-2-yl)piperazin-1-yl]phenyl}piperidine-1-carboxamide] | 156 |
| CC(C)N1CCN(c2ccccc2NC(=O)N2CCC(C#N)(c3ccccc3)CC2)CC1.Cl [Example 6, 4-cyano-4-phenyl-N-{2-[4-(propan-2-yl)piperazin-1-yl]phenyl}piperidine-1-carboxamide] | 151 |
| CC(C)N1CCN(c2ccccc2NC(=O)N2CCC(c3ccccc3)CC2)CC1 [Example 7, 4-phenyl-N-{2-[4-(propan-2-yl)piperazin-1-yl]phenyl}piperidine-1-carboxamide] | 154 |
| COc1cccc(N2CCN(C(C)C)CC2)c1NC(=O)N1CCC(c2ccc(C)cc2)CC1 [Example 8, N-{2-methoxy-6-[4-(propan-2-yl)piperazin-1-yl]phenyl}-4-(4-methylphenyl)piperidine-1-carboxamide] | 145 |
| Cc1ccc(C2CCN(C(=O)Nc3c(F)cccc3N3CCN(C(C)C)CC3)CC2)cc1 [Example 9, N-{2-fluoro-6-[4-(propan-2-yl)piperazin-1-yl]phenyl}-4-(4-methylphenyl)piperidine-1-carboxamide] | 132 |
| Cc1ccc(C2CCN(C(=O)Nc3ccc(F)cc3N3CCN(C(C)C)CC3)CC2)cc1 [Example 10, N-{4-fluoro-2-[4-(propan-2-yl)piperazin-1-yl]phenyl}-4-(4-methylphenyl)piperidine-1-carboxamide] | 34 |
| Cc1ccc(C2CCN(C(=O)Nc3cccc(F)c3N3CCN(C(C)C)CC3)CC2)cc1 [Example 11, N-{3-fluoro-2-[4-(propan-2-yl)piperazin-1-yl]phenyl}-4-(4-methylphenyl)piperidine-1-carboxamide] | 142 |
| CC(C)N1CCN(c2ccccc2NC(=O)N2CCC(C)(c3nc(-c4ccccc4)no3)CC2)CC1 [Example 12, 4-methyl-4-(3-phenyl-1,2,4-oxadiazol-5-yl)-N-{2-[4-(propan-2-yl)piperazin-1-yl]phenyl}piperidine-1-carboxamide] | 123 |
| CC(C)N1CCN(c2ccccc2NC(=O)N2CCC(C)(c3nc(-c4cccnc4)no3)CC2)CC1 [Example 13, 4-methyl-N-{2-[4-(propan-2-yl)piperazin-1-yl]phenyl}-4-[3-(pyridin-3-yl)-1,2,4-oxadiazol-5-yl]piperidine-1-carboxamide] | 99 |
| Cc1ccc(C23CCN(C(=O)Nc4ccccc4N4CCN(C(C)C)CC4)CC2C3)cc1 (stereo not drawn) [Example 14, 6-(4-methylphenyl)-N-{2-[4-(propan-2-yl)piperazin-1-yl]phenyl}-3-azabicyclo[4.1.0]heptane-3-carboxamide] | 126 |
| COc1cccc(N2CCN(C(C)C)CC2)c1NC(=O)N1CCC(c2ccc(C(F)(F)F)cc2)CC1 [Example 15, N-{2-methoxy-6-[4-(propan-2-yl)piperazin-1-yl]phenyl}-4-[4-(trifluoromethyl)phenyl]piperidine-1-carboxamide] | 101 |
| COc1cccc(N2CCN(C(C)C)CC2)c1NC(=O)N1CCC(c2ccc(OC(F)(F)F)cc2)CC1 [Example 16, N-{2-methoxy-6-[4-(propan-2-yl)piperazin-1-yl]phenyl}-4-[4-(trifluoromethoxy)phenyl]piperidine-1-carboxamide] | 82 |
| Cc1ccc(C2CCN(C(=O)Nc3c(C)cccc3N3CCN(C(C)C)CC3)CC2)cc1 [Example 17, 4-(4-methylphenyl)-N-{2-methyl-6-[4-(propan-2-yl)piperazin-1-yl]phenyl}piperidine-1-carboxamide] | 133 |
| Cc1ccc(C2CCN(C(=O)Nc3ccccc3N3CCN(C(C)C)CC3)CC2)c(F)c1 [Example 18, 4-(2-fluoro-4-methylphenyl)-N-{2-[4-(propan-2-yl)piperazin-1-yl]phenyl}piperidine-1-carboxamide] | 128 |
| CC(C)c1nc(C2(C)CCN(C(=O)Nc3ccccc3N3CCN(C(C)C)CC3)CC2)no1 [Example 19, 4-methyl-4-[5-(propan-2-yl)-1,2,4-oxadiazol-3-yl]-N-{2-[4-(propan-2-yl)piperazin-1-yl]phenyl}piperidine-1-carboxamide] | 133 |
| CC(C)c1nc(C2(C)CCN(C(=O)Nc3c(F)cccc3N3CCN(C(C)C)CC3)CC2)no1 [Example 20, N-{2-fluoro-6-[4-(propan-2-yl)piperazin-1-yl]phenyl}-4-methyl-4-[5-(propan-2-yl)-1,2,4-oxadiazol-3-yl]piperidine-1-carboxamide] | 111 |
| COc1cccc(N2CCN(C(C)C)CC2)c1NC(=O)N1CCC(C)(c2noc(C(C)C)n2)CC1 [Example 21, N-{2-methoxy-6-[4-(propan-2-yl)piperazin-1-yl]phenyl}-4-methyl-4-[5-(propan-2-yl)-1,2,4-oxadiazol-3-yl]piperidine-1-carboxamide] | 156 |
| Cc1nc(C2(C)CCN(C(=O)Nc3c(F)cccc3N3CCN(C(C)C)CC3)CC2)no1 [Example 22, N-{2-fluoro-6-[4-(propan-2-yl)piperazin-1-yl]phenyl}-4-methyl-4-(5-methyl-1,2,4-oxadiazol-3-yl)piperidine-1-carboxamide] | 97 |
| COc1cccc(N2CCN(C(C)C)CC2)c1NC(=O)N1CCC(C)(c2noc(C)n2)CC1 [Example 23, N-{2-methoxy-6-[4-(propan-2-yl)piperazin-1-yl]phenyl}-4-methyl-4-(5-methyl-1,2,4-oxadiazol-3-yl)piperidine-1-carboxamide] | 92 |
